System: SW480
Experiment: drug sensitivity score (DSS, integrated dose-response area); higher = more sensitive (stronger viability reduction); extreme values may be limits of the assay
Method in brief: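 After 7 days of induction with 0.1 µg/mL doxycycline, SW480 cells stably harbouring inducible control or SND1-targeting shRNA were plated at 1000 cells per well in 384-well plates preloaded with 525 small-molecule inhibitors at five concentrations. CellTiter-Glo viability readings were taken 72 h later. Drug sensitivity scores come from integrating the area under a fitted non-linear dose–response model.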

[1] = shRNA: SND1 shRNA1 (SND1 silenced)
[2] = shRNA: control shRNA (non-targeting)
[3] = shRNA: SND1 shRNA2 (SND1 silenced)

SMILES	drug sensitivity score [1] [DSS]	drug sensitivity score [2] [DSS]	drug sensitivity score [3] [DSS]
O=C(O)CCCCC(CCSCc1ccccc1)SCc1ccccc1 (stereo not drawn) [CPI-613]	0	0	–
C#Cc1cccc(Nc2ncnc3cc(OC)c(OCCCCCCC(=O)NO)cc23)c1 [CUDC-101]	11.3	10.7	12.6
CN(C)c1cc2c(cc1Sc1nc3c(N)nccc3n1CCNCC(C)(C)C)OCO2 [CUDC-305]	13.3	14.9	13.1
COc1ccc(-c2nc(N3CCOCC3)c3sc(CN(C)c4ncc(C(=O)NO)cn4)cc3n2)cn1 [CUDC-907]	40.7	34.2	33.9
Cc1nc(N)sc1-c1ccnc(Nc2ccc(N3CCOCC3)cc2)n1 [CYC-116]	9.3	8.8	–
CO[C@H]1C(=O)[C@]2(C)[C@@H](OC)C[C@H]3OC[C@@]3(OC(C)=O)[C@H]2[C@H](OC(=O)c2ccccc2)[C@]2(O)C[C@H](OC(=O)[C@H](O)[C@@H](NC(=O)OC(C)(C)C)c3ccccc3)C(C)=C1C2(C)C [Cabazitaxel]	18.7	20.3	14.6
COc1cc2nccc(Oc3ccc(NC(=O)C4(C(=O)Nc5ccc(F)cc5)CC4)cc3)c2cc1OC [Cabozantinib]	0	0.6	2.7
CC[C@@]1(O)C(=O)OCc2c1cc1n(c2=O)Cc2cc3ccccc3nc2-1 [Camptothecin]	18.4	12.6	10.3
C=CC(=O)Nc1cc2c(Nc3ccc(F)c(Cl)c3)ncnc2cc1OCCCN1CCOCC1 [Canertinib]	7	8.6	6.2
CCCCCOC(=O)Nc1nc(=O)n([C@@H]2O[C@H](C)[C@@H](O)[C@H]2O)cc1F [Capecitabine]	0	0	0
O=C(O)C1(C(=O)O)CCC1.[NH2-].[NH2-].[Pt+2] [Carboplatin]	1	0.5	–
CC(C)C[C@H](NC(=O)[C@H](CCc1ccccc1)NC(=O)CN1CCOCC1)C(=O)N[C@@H](Cc1ccccc1)C(=O)N[C@@H](CC(C)C)C(=O)[C@@]1(C)CO1 [Carfilzomib]	22.9	24.6	24.5
O=NN(CCCl)C(=O)NCCCl [Carmustine]	0	0.4	0
COc1cc2c(Oc3ccc4[nH]c(C)cc4c3F)ncnc2cc1OCCCN1CCCC1 [Cediranib]	6.1	4.3	5.1
Cc1ccc(-c2cc(C(F)(F)F)nn2-c2ccc(S(N)(=O)=O)cc2)cc1 [Celecoxib]	0	0	0
CCS(=O)(=O)N1CCN(c2ccc(Nc3ncc(C(N)=O)c(NC4CC4)n3)cc2)CC1 [Cerdulatinib]	7.8	9.3	6.6
Cc1cc(Nc2ncc(Cl)c(Nc3ccccc3S(=O)(=O)C(C)C)n2)c(OC(C)C)cc1C1CCNCC1 [Ceritinib]	2.1	0.2	0.8
O=C(O)CCCc1ccc(N(CCCl)CCCl)cc1 [Chlorambucil]	0	0	0
CCN(CC)CCCC(C)Nc1ccnc2cc(Cl)ccc12 (stereo not drawn) [Chloroquine]	14.9	11.6	–

SMILES	drug sensitivity score [1] [DSS]	drug sensitivity score [2] [DSS]	drug sensitivity score [3] [DSS]
CC(C)[C@H]1C(=O)N[C@@H](CCCNC(=N)N)C(=O)NCC(=O)N[C@@H](CC(=O)O)C(=O)N[C@H](Cc2ccccc2)C(=O)N1C [Cilengitide]	0	0	0
N.N.[Cl][Pt][Cl] [Cisplatin]	8.1	9.2	–
Nc1nc(Cl)nc2c1ncn2[C@H]1C[C@H](O)[C@@H](CO)O1 [Cladribine]	2.4	0.5	0
Nc1nc(Cl)nc2c1ncn2[C@@H]1O[C@H](CO)[C@@H](O)[C@@H]1F [Clofarabine]	8.4	6.5	0.7
CCN(CC)CCOc1ccc(C(=C(Cl)c2ccccc2)c2ccccc2)cc1 [Clomifene]	7	6.1	5.3
O=C(c1ccc(F)c(F)c1Nc1ccc(I)cc1F)N1CC(O)([C@@H]2CCCCN2)C1 [Cobimetinib]	13.3	7.7	–
COc1c(OCCCN2CCOCC2)ccc2c1N=C(NC(=O)c1cnc(N)nc1)N1CCN=C21 [Copanlisib]	4	0	0.3
CC1(COc2ccc3c(c2)ncn3-c2ccc3cccc(N4CCC(N)CC4)c3n2)COC1 [Crenolanib]	11.9	13	11.7
C[C@@H](Oc1cc(-c2cnn(C3CCNCC3)c2)cnc1N)c1c(Cl)ccc(F)c1Cl [Crizotinib]	0.6	2.9	0.2
O=P1(N(CCCl)CCCl)NCCCO1 (stereo not drawn) [Cyclophosphamide]	0	0	0
Nc1ccn([C@@H]2O[C@H](CO)[C@@H](O)[C@@H]2O)c(=O)n1 [Cytarabine]	5.4	3.6	0
CC(C)(C)c1nc(-c2cccc(NS(=O)(=O)c3c(F)cccc3F)c2F)c(-c2ccnc(N)n2)s1 [Dabrafenib]	0	0	–
CN(C)/N=N/c1[nH]cnc1C(N)=O [Dacarbazine]	0	0.7	1.9
COc1cc2ncnc(Nc3ccc(F)c(Cl)c3)c2cc1NC(=O)/C=C/CN1CCCCC1 [Dacomitinib]	3.3	10.2	7
Cc1c2oc3c(C)ccc(C(=O)N[C@@H]4C(=O)N[C@H](C(C)C)C(=O)N5CCC[C@H]5C(=O)N(C)CC(=O)N(C)[C@@H](C(C)C)C(=O)O[C@@H]4C)c3nc-2c(C(=O)N[C@@H]2C(=O)N[C@H](C(C)C)C(=O)N3CCC[C@H]3C(=O)N(C)CC(=O)N(C)[C@@H](C(C)C)C(=O)O[C@@H]2C)c(N)c1=O [Dactinomycin]	24.3	26.8	24
Cn1c(=O)n(-c2ccc(C(C)(C)C#N)cc2)c2c3cc(-c4cnc5ccccc5c4)ccc3ncc21 [Dactolisib]	17.8	11.3	17.8
CO[C@@H](C(=O)N1Cc2[nH]nc(NC(=O)c3ccc(N4CCN(C)CC4)cc3)c2C1)c1ccccc1 [Danusertib]	6.5	4.9	4.7
O=C(/C=C/c1cccnc1)NCCCCC1CCN(C(=O)c2ccccc2)CC1 [Daporinad]	28.1	27.8	–

— the supplement of paper PMC9265050, “Inhibition of RNA Binding in SND1 Increases the Levels of miR-1-3p and Sensitizes Cancer Cells to Navitoclax” (Cancers, 2022)
